Values after ≈ are worked out from the molar mass of the structure shown.
Test: Glibenclamide solubility at various pH in PEG 300/ethanol/meglumine buffer (Table 2, FIG. 1)
Type: physicochemical
Details: for solubility: aqueous with cosolvent or surfactant or cyclodextrin
Description: The solubility of glibenclamide was measured at various pH levels in the presence of different amounts of the buffer meglumine in solutions containing 40% PEG 300, 10% ethanol, and 50% water. […] The pH of the meglumine buffer was adjusted down from pH 11 to the target pH range of between about pH 8 to about pH 10.

- solubility change with pH (FIG. 1) (40% PEG 300, 10% ethanol, 50% water, meglumine buffer, basic pH values greater than about pH 8): greatly increased
- solubility (PEG 300/ethanol/meglumine buffer solution, PEG 300/Ethanol/20 mM Meglumine 40%/10%/50% (final 10 mM), nominal pH 8.5, actual pH 5.4): 100 µg/mL (≈ 202 µM)
- solubility (PEG 300/ethanol/meglumine buffer solution, PEG 300/Ethanol/20 mM Meglumine 40%/10%/50% (final 10 mM), nominal pH 9.0, actual pH 5.6): 130 µg/mL (≈ 263 µM)
- solubility (PEG 300/ethanol/meglumine buffer solution, PEG 300/Ethanol/20 mM Meglumine 40%/10%/50% (final 10 mM), nominal pH 9.5, actual pH 6.4): 120 µg/mL (≈ 243 µM)
- solubility (PEG 300/ethanol/meglumine buffer solution, PEG 300/Ethanol/100 mM Meglumine 40%/10%/50% (final 50 mM), nominal pH 9.5, actual pH 7.7): 410 µg/mL (≈ 830 µM)
- solubility (PEG 300/ethanol/meglumine buffer solution, PEG 300/Ethanol/100 mM Meglumine 40%/10%/50% (final 50 mM), nominal pH 10.0, actual pH 8.8): 2740 µg/mL (≈ 5550 µM)
- solubility (40% PEG 300, 10% ethanol, 50% water with meglumine buffer, nominal pH 9 (pH 8.8)): 2700 µg/mL (≈ 5470 µM)
- solubility (PEG 300/Ethanol/20 mM Meglumine 40%/10%/50% (final 10 mM), nominal pH 10.0, actual pH 6.9): 980 µg/mL (≈ 1980 µM)
- solubility (PEG 300/Ethanol/50 mM Meglumine 40%/10%/50% (final 25 mM), nominal pH 8.0, actual pH 5.2): 160 µg/mL (≈ 324 µM)
- solubility (PEG 300/Ethanol/50 mM Meglumine 40%/10%/50% (final 25 mM), nominal pH 9.5, actual pH 6.6): 90 µg/mL (≈ 182 µM)
- solubility (PEG 300/Ethanol/50 mM Meglumine 40%/10%/50% (final 25 mM), nominal pH 10.0, actual pH 7.8): 360 µg/mL (≈ 729 µM)
- solubility (PEG 300/Ethanol/100 mM Meglumine 40%/10%/50% (final 50 mM), nominal pH 8.0, actual pH 5.3): 90 µg/mL (≈ 182 µM)
- solubility (PEG 300/Ethanol/100 mM Meglumine 40%/10%/50% (final 50 mM), nominal pH 8.5, actual pH 5.5): 100 µg/mL (≈ 202 µM)
- solubility (PEG 300/Ethanol/100 mM Meglumine 40%/10%/50% (final 50 mM), nominal pH 9.0, actual pH 6.2): 100 µg/mL (≈ 202 µM)
SMILES: COc1ccc(Cl)cc1C(=O)NCCc1ccc(S(=O)(=O)NC(=O)NC2CCCCC2)cc1 [Glibenclamide, N-p-(2-[5-Chloro-2-methoxybenzamido]ethyl) benzenesulfonyl-N′-cyclohexylurea]

Reference: patent US10688111B2, “Liquid formulations of compounds active at sulfonylurea receptors” (Biogen Chesapeake LLC, priority 2008, dated 2020)
